The values that follow come from patent publication US20240148821A1, “PHARMACEUTICAL USE OF CYCLIC PEPTIDE COMPOUND” (CHUGAI SEIYAKU KABUSHIKI KAISHA, priority 2021, published 2024).

pIC50: −log10 of the molar value. Numbered stars: 1 amine (or outer) side, 2 acyl side, 3 side chain; on linkers, the order of the positions; unused ones are H or OH. Bridge positions count the residues as written; N and C are the ends. Square brackets hold non-standard residues; d marks the D form. Peptide text beside a SMILES is read from it. * marks the point of attachment. hPhe(3-Cl-4-CF3) = N[C@@H](CCc1ccc(C(F)(F)F)c(Cl)c1)C(=O)O; NMePhe(4-CF3) = CN[C@@H](Cc1ccc(C(F)(F)F)cc1)C(=O)O; hPhe(4-CF3) = N[C@@H](CCc1ccc(C(F)(F)F)cc1)C(=O)O; NEtPhe(4-Me) = CCN[C@@H](Cc1ccc(C)cc1)C(=O)O; NMePhe(4-Cl) = CN[C@@H](Cc1ccc(Cl)cc1)C(=O)O; X30 = O=C([C@H](CCc1ccc(Cl)cc1F)N[*:1])[*:2]; NMedβ3hAla = C[C@H](CC(=O)[*:2])N(C)[*:1]; NMeGly(cPent) = CN[C@H](C(=O)O)C1CCCC1; X127 = COC/C=C/CN(CC(=O)[*:2])[*:1]; NMeCha = CN[C@@H](CC1CCCCC1)C(=O)O; cisHyp = O=C(O)[C@@H]1C[C@H](O)CN1; Hyp = O=C(O)[C@@H]1C[C@@H](O)CN1; NMeChg = CN[C@H](C(=O)O)C1CCCCC1; NMeF = CN[C@@H](Cc1ccccc1)C(=O)O; NMeI = CC[C@H](C)[C@H](NC)C(=O)O; NMeD = CN[C@@H](CC(=O)O)C(=O)O; NMeL = CN[C@@H](CC(C)C)C(=O)O; d(β3hA) = C[C@@H](N)CC(=O)O; NMeA = CN[C@@H](C)C(=O)O; Piperidide = C1CCN(*)CC1; Ac5c = NC1(C(=O)O)CCCC1; Aze = O=C(O)[C@@H]1CCN1; Aib = CC(C)(N)C(=O)O; Ethyl(2-OH) = OCC*; Sar = CNCC(=O)O

The assay deals with protein-protein interaction between Kras and SOS1 (biotin-tagged human Kras loaded with GDP, His-tagged human SOS1) (Homo sapiens (Human), UniProt P01116, G12D). In words: Protein-protein interaction inhibition between Kras and SOS1 (KrasG12D-SOS PPI) using AlphaScreen.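 Also: kras produced in E. coli, Ni-coupled donor beads and streptavidin acceptor beads, excitation 680 nm with emission detected at 520–620 nm via singlet oxygen transfer.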 It counts as biochemical. The conditions noted are these: AlphaScreen; biotin-tagged human Kras loaded with GDP, His-tagged human SOS1; read-out: KRAS G12D-SOS PPI IC50. For orientation: Bead proximity is the source of the signal in Alpha formats.
By pIC50 is commonly meant −log10 of the IC50, conventionally taken in molar units. Regarding `CC[C@H](C)[C@@H]1NC(=O)[C@H](CC(C)C)N(C)C(=O)C[C@@H](C(=O)N2CCCCC2)N(C)C(=O)[C@H](C2CCCCC2)N(C)C(=O)C2(CCCC2)NC(=O)CN(C/C=C/COC)C(=O)[C@H](CCc2ccc(C(F)(F)F)c(Cl)c2)NC(=O)CN(C)C(=O)[C@H](CC2CCCCC2)N(C)C(=O)CN(C)C(=O)CN(C)C1=O` [Compound 2051, (11S,17S,26S,29S,33S,36S)-11-[2-[3-chloro-4-(trifluoromethyl)phenyl]ethyl]-36-cyclohexyl-17-(cyclohexylmethyl)-29-isobutyl-9-[(E)-4-methoxybut-2-enyl]-15,18,21,24,30,34,37-heptamethyl-26-[(1S)-1-methylpropyl]-33-(piperidine-1-carbonyl)-6,9,12,15,18,21,24,27,30,34,37-undecazaspiro[4.33]octatriacontane-7,10,13,16,19,22,25,28,31,35,38-undecone] ([NMeL]I[Sar][Sar][NMeCha][Sar][hPhe(3-Cl-4-CF3)][X127][Ac5c][NMeChg][NMeD]-Piperidide; lactam N-11), the negative logarithm of the IC50 (pIC50) is 8.60. Regarding `CC[C@H](C)[C@@H]1NC(=O)[C@H](C)N(C)C(=O)C[C@@H](C)NC(=O)[C@H](CC(C)C)N(C)C(=O)[C@H](Cc2ccccc2)N(C)C(=O)[C@H](CC(C)C)NC(=O)[C@H](CCc2ccc(Cl)cc2F)NC(=O)CN(C)C(=O)[C@H](Cc2ccc(Cl)cc2)N(C)C(=O)CN(C)C(=O)CN(C)C1=O` [Compound 2086] (cyclo(I[Sar][Sar][NMePhe(4-Cl)][Sar][X30]L[NMeF][NMeL][d(β3hA)][NMeA])), the pIC50 is 7.00.

As for `CC[C@H](C)[C@@H]1NC(=O)[C@H](C)N(C)C(=O)C[C@@H](C)N(C)C(=O)[C@H](CC(C)C)NC(=O)C(C)(C)NC(=O)[C@H](CC(C)C)NC(=O)[C@H](CCc2ccc(C(F)(F)F)cc2)NC(=O)CN(C)C(=O)[C@H](Cc2ccc(Cl)cc2)N(C)C(=O)CN(C)C(=O)CN(C)C1=O` [Compound 170] (cyclo([Aib]L[NMedβ3hAla][NMeA]I[Sar][Sar][NMePhe(4-Cl)][Sar][hPhe(4-CF3)]L)), the pIC50 was 6.46. With `CC[C@H](C)[C@@H]1NC(=O)[C@H](CC(C)C)N(C)C(=O)C[C@@H](C(=O)N(C)C)N(C)C(=O)[C@H](C2CCCC2)N(C)C(=O)C2(CCCC2)NC(=O)[C@H](CC(=O)N(C)C)N(C)C(=O)[C@H](CCc2ccc(C(F)(F)F)c(Cl)c2)NC(=O)CN(C)C(=O)[C@H](CC2CCCCC2)N(C)C(=O)[C@@H]2CCN2C(=O)[C@H](C)N(C)C1=O` [Compound 2106, (3S,6S,9S,13S,16S,22S,25S,31S,34S)-25-[2-[3-chloro-4-(trifluoromethyl)phenyl]ethyl]-31-(cyclohexylmethyl)-16-cyclopentyl-22-[2-(dimethylamino)-2-oxo-ethyl]-9-isobutyl-N,N,3,4,10,14,17,23,29,32-decamethyl-6-[(1S)-1-methylpropyl]-2,5,8,11,15,18,21,24,27,30,33-undecaoxo-spiro[1,4,7,10,14,17,20,23,26,29,32-undecazabicyclo[32.2.0]hexatriacontane-19,1-cyclopentane]-13-carboxamide] ([NMeL]I[NMeA][Aze][NMeCha][Sar][hPhe(3-Cl-4-CF3)][NMeD](NMe2)[Ac5c][NMeGly(cPent)][NMeD]-NMe2; lactam N-11) the figure was 8.70; with `CCO[C@@H]1C[C@H]2C(=O)NC3(CCCC3)C(=O)N(C)[C@@H]([C@@H](C)CC)C(=O)N(C)[C@H](C)CC(=O)N(C)[C@@H](CC(C)C)C(=O)N[C@@H]([C@@H](C)CC)C(=O)N(C)[C@@H](C)C(=O)N3CC[C@H]3C(=O)N(CC)[C@@H](Cc3ccc(C)cc3)C(=O)N(C)CC(=O)N[C@@H](CCc3ccc(C(F)(F)F)c(Cl)c3)C(=O)N2C1` [Compound 951] (cyclo([Ac5c][NMeI][NMedβ3hAla][NMeL]I[NMeA][Aze][NEtPhe(4-Me)][Sar][hPhe(3-Cl-4-CF3)][Hyp](Et))), 8.10; with `CC[C@H](C)[C@@H]1NC(=O)[C@H](CC(C)C)N(C)C(=O)C[C@@H](C(=O)N2CCCCC2)N(C)C(=O)[C@H]([C@@H](C)CC)N(C)C(=O)C2(CCCC2)NC(=O)[C@@H]2CCCN2C(=O)[C@H](CCc2ccc(C(F)(F)F)c(Cl)c2)NC(=O)CN(C)C(=O)[C@H](CC2CCCCC2)N(C)C(=O)[C@@H]2CCN2C(=O)[C@H](C)N(C)C1=O` [Compound 1722] ([NMeL]I[NMeA][Aze][NMeCha][Sar][hPhe(3-Cl-4-CF3)]P[Ac5c][NMeI][NMeD]-Piperidide; lactam N-11), 8.55. For `CC[C@H](C)[C@@H]1NC(=O)[C@H](C)N(C)C(=O)C[C@@H](C)NC(=O)[C@H](C2CCCC2)N(C)C(=O)C2(CCCC2)NC(=O)[C@@H]2CCCN2C(=O)[C@H](CCc2ccc(C(F)(F)F)c(Cl)c2)NC(=O)[C@H]2CCCN2C(=O)[C@H](Cc2ccc(C(F)(F)F)cc2)N(C)C(=O)CN(C)C(=O)CN(C)C1=O` [Compound 1470] (cyclo([Ac5c][NMeGly(cPent)][d(β3hA)][NMeA]I[Sar][Sar][NMePhe(4-CF3)][dP][hPhe(3-Cl-4-CF3)]P)), the pIC50 was 6.68. With `CCO[C@@H]1C[C@H]2C(=O)NC3(CCCC3)C(=O)N(C)[C@@H](C3CCCC3)C(=O)N(C)[C@H](C)CC(=O)N(C)[C@@H](CC(C)C)C(=O)N[C@@H]([C@@H](C)CC)C(=O)N(C)CC(=O)N(C)CC(=O)N(C)[C@@H](Cc3ccc(C(F)(F)F)cc3)C(=O)N(C)CC(=O)N[C@@H](CCc3ccc(C(F)(F)F)c(Cl)c3)C(=O)N2C1` [Compound 541] (cyclo([Ac5c][NMeGly(cPent)][NMedβ3hAla][NMeL]I[Sar][Sar][NMePhe(4-CF3)][Sar][hPhe(3-Cl-4-CF3)][Hyp](Et))) the figure was 8.37; with `CC[C@H](C)[C@@H]1NC(=O)[C@H](CC(C)C)N(C)C(=O)C[C@@H](C(=O)N2CCCCC2)N(C)C(=O)[C@H](CC(C)C)N(C)C(=O)C2(CCCC2)NC(=O)[C@@H]2CCCN2C(=O)[C@H](CCc2ccc(C(F)(F)F)c(Cl)c2)NC(=O)CN(C)C(=O)[C@H](CC2CCCCC2)N(C)C(=O)[C@@H]2CCN2C(=O)[C@H](C)N(C)C1=O` [Compound 1657] ([NMeL]I[NMeA][Aze][NMeCha][Sar][hPhe(3-Cl-4-CF3)]P[Ac5c][NMeL][NMeD]-Piperidide; lactam N-11), 8.55; with `CC[C@H](C)[C@@H]1NC(=O)[C@H](CC(C)C)N(C)C(=O)C[C@@H](C(=O)N2CCCCC2)N(C)C(=O)[C@H](C2CCCCC2)N(C)C(=O)C2(CCCC2)NC(=O)[C@@H]2C[C@H](OCCO)CN2C(=O)[C@H](CCc2ccc(C(F)(F)F)c(Cl)c2)NC(=O)CN(C)C(=O)[C@H](CC2CCCCC2)N(C)C(=O)CN(C)C(=O)CN(C)C1=O` [Compound 2117, (3S,9S,18S,21S,25S,28S,34S,36S)-3-[2-[3-chloro-4-(trifluoromethyl)phenyl]ethyl]-28-cyclohexyl-9-(cyclohexylmethyl)-36-(2-hydroxyethoxy)-21-isobutyl-7,10,13,16,22,26,29-heptamethyl-18-[(1S)-1-methylpropyl]-25-(piperidine-1-carbonyl)spiro[1,4,7,10,13,16,19,22,26,29,32-undecazabicyclo[32.3.0]heptatriacontane-31,1′-cyclopentane]-2,5,8,11,14,17,20,23,27,30,33-undecone] ([NMeL]I[Sar][Sar][NMeCha][Sar][hPhe(3-Cl-4-CF3)][cisHyp](Ethyl(2-OH))[Ac5c][NMeChg][NMeD]-Piperidide; lactam N-11), 9.39.
